Measurements published in patent publication US10144929B2, “Polypeptide inhibitors of Smad3 polypeptide activities” (Mayo Foundation for Medical Education and Research, priority 2016, dated 2018).
Entries after “also recorded” stand apart in the source; their conditions may differ.

Test system: Smad3 targets (PAI-1, CTGF, Smad7)
Assay: RT-PCR/qPCR/Western of Smad3 responsive genes in AKR-2B cells
Assay type: cell-based
Settings: 5 ng/mL TGFβ, 24 hours
Experimental: FIGS. 2A-C. TAT-SH3 inhibits Smad3-dependent responses. (A) AKR-2B cells were transiently transfected with a Smad3 (3TP), Smad2 (ARE), or Smad1/5/8 (BRE) reporter construct, and luciferase activity determined following 12 hours incubation in the absence (−) or presence (+) of the indicated ligand (5 ng/mL TGFβ; 10 ng/mL BMP4) or TAT-SNX9(SH3) fusion polypeptide (1.5 μM). Data represent the mean+/−SEM of three experiments. (B) RT-PCR analysis of Smad3 (PAI-1 and CTGF) and Smad2 (MMP2) responsive gene following 24 hour treatment of AKR-2B cells with the indicated concentration of TAT-SNX9(SH3) fusion polypeptide or 5 ng/mL TGFβ. Loading was verified by GAPDH expression. (C) Soft agar colony formation was performed following seven days growth in the presence (+) or absence (−) of TGFβ (10 ng/mL) or the indicated TAT-SNX9(SH3) fusion polypeptide (1.5 μM). […]
FIGS. 3A-E. Inhibition of Smad3 signaling by a defined region of the SH3 domain in SNX9. […] (B) Nuclear fractions were prepared and assessed as in FIG. 1B following transduction with the indicated TAT-SNX9(SH3) fusion polypeptide (Left). Quantitation (mean+/−sd) of nuclear pSmad2 or pSmad3 from 2 experiments (Right). (C) Immunofluorescence of nuclear Smad3 was determined as in FIG. 1C from 30 cells in each of two experiments in the absence (−) or presence (+) of 5 ng/mL TGFβ and the indicated TAT-SNX9(SH3) fusion polypeptide (1.5 μM). […]

Substance | TGFβ induction of Smad3 targets / Smad3-dependent transcriptional responses
TAT-SH3-2M: TAT-SH3-2 with G to V point mutations at amino acids 36-38; inactive TAT-SNX9 peptide unable to bind pSmad3 (TVNEGEIITITNPDVVVVWLEGRNIKGERGL; left off: small tags and cut ends) | abolished the inhibitory effect
TAT-SH3-2: TAT-SNX9(SH3) fusion polypeptide having SNX9 amino acids 21-51 (31 mer) (TVNEGEIITITNPDVGGGWLEGRNIKGERGL; left off: small tags and cut ends) | prevented Smad3-dependent transcriptional responses; also recorded: prevented TGFβ induction of Smad3 targets such as CTGF, PAI-1, and Smad7 to a similar degree as inhibition of TβRI
